Results published in patent US9737493B2, “Compositions and methods for modulating DNMT1 inhibitor activity” (University of Louisville Research Foundation, Inc., priority 2012, dated 2017).

Columns and labels:
[1] = system: DU145 cells; test: MTT cell proliferation assay; type: cell-based; settings: Homo sapiens, DU-145; DU145, 72 h
Protocol: (§1) Cell Proliferation Assays. The antiproliferative activity of XB05 was tested using a previously published 3-(4,5-dimethylthiazol-2-yl)-2,5-diphenyltetrazolium bromide (MTT) assay protocol (Girvan et al., “AGRO100 inhibits activation of nuclear factor-kappaB (NF-kappaB) by forming a complex with NF-kappaB essential modulator (NEMO) and nucleolin” Molecular Cancer Therapeutics (2006) Vol. 5, No. 7, pp. 1790-1799). Briefly, cells were seeded in quadruplicate wells in 96-well plates and allowed to adhere overnight. […] Plates were incubated with XB05 for 72 h, during which the cell culture medium was not changed. Cell viability was determined and the background corresponding to medium alone (no cells) was subtracted. Data were analyzed as described in the Brief Description of the Drawings.
(§2) XB05 has Cancer-Selective Antiproliferative Activity. XB05 was tested to determine its antiproliferative activity in a variety of human cell lines that are derived from malignant tissues or from non-malignant (immortalized but not transformed) cells and listed in FIG. 1B. As described in Materials and Methods, cells were treated with varying concentrations of XB05 for 72 h and evaluated using the MTT cell proliferation assay.

[2] = system: MDA-MB-231 cells; test: MTT cell proliferation assay; type: cell-based; settings: Homo sapiens, MDA-MB-231, 72 h
Protocol: as §1, §2

[3] = system: A549 non-small cell lung cancer cells; test: MTT cell proliferation assay; type: cell-based, human; settings: A549, MTT 72 h
Protocol: as §1, §2

[4] = system: Hs27 non-malignant skin fibroblasts; test: MTT cell proliferation assay; type: cell-based, human; settings: Hs27, MTT 72 h
Protocol: as §1, §2

[5] = system: U937 myeloid leukemia cells; test: MTT cell proliferation assay; type: cell-based, human
Protocol: as §1, §2

[6] = system: A549 cells; test: Flow cytometric detection of γ-H2AX; type: cell-based, human; settings: A549, 2 μM, 24 h
Protocol: (§3) FIG. 11: XB05 Induces DNA Damage in Malignant Cells. (A) Alkaline comet assays for detection of DNA damage for cells treated as indicated for 72 h. TBHP was a positive control for oxidative DNA damage. Decreased DNA fluorescence in nucleoid comet heads (arrows) and increased smearing of DNA into comet tails (asterisks) is indicated. Scale bar, 400 μm. Data shown are representative of at least two individual experiments for each cell line. (B) Western blot analysis for γ-H2AX and GAPDH (loading control) in whole cell extracts from cells treated with vehicle, UV irradiation (800 μJ, positive control for DSBs), or XB05 (1 μM for U937, 2 μM for A549) after 24 h. Images shown are representative of three individual experiments in each cell line. (C) Flow cytometric detection of γ-H2AX in cells treated as described in part B. Bar graph represents mean+/−SEM for 3 individual experiments in each cell line. Statistical comparison indicated significant differences between vehicle and XB05-treated groups in both cell lines (*p≦0.05).
(§4) Flow Cytometric Assays. Analyses were performed using a FACScalibur flow cytometer (BD Biosciences, Mountain View, Calif.) and FlowJo software (Tree Star, Inc., Ashland, Oreg.). […] Cells were then washed twice with PBS, re-suspended at a density of 1×10^6 cells/mL in PBS and analyzed by flow cytometry.

[7] = system: U937 cells; test: Flow cytometric detection of γ-H2AX; type: cell-based, human; settings: U937, 1 μM, 24 h
Protocol: as §3, §4

[8] = system: A549 cells; test: DNA content (PI) cell cycle analysis; type: cell-based, human
Protocol: (§5) FIG. 6: DNA Content Analysis for Malignant Cells treated with XB05. (A) U937 and A549 cells were treated with XB05 at the concentrations indicated for 24, 48 and 72 h. At each time point, the cells were harvested and subjected to propidium iodide (PI) staining for DNA content analysis as described in Methods. (B) Tables showing percentage of cycling cells (non-SubG1) in various phases of the cell cycle after treatment with vehicle or XB05 as indicated in FIG. 6A.
(§6) Flow Cytometric Assays. Analyses were performed using a FACScalibur flow cytometer (BD Biosciences, Mountain View, Calif.) and FlowJo software (Tree Star, Inc., Ashland, Oreg.). Cells were treated as indicated in the figures and in the Brief Description of the Drawings. Cells were harvested by using TrypLE Cell Dissociation Reagent (Life Technologies). For cell death analyses, cells (adherent and detached cells) were stained with annexin-V-FITC and propidium iodide (PI) using the Apoptosis Detection Kit (BD Biosciences, San Jose, Calif.), according to the manufacturer's instructions. For cell-cycle distribution, cells were fixed, and stained with PI using the Cycle Test Plus kit (Becton Dickinson, Franklin Lakes, N.J.). […] Cells were then washed twice with PBS, re-suspended at a density of 1×10^6 cells/mL in PBS and analyzed by flow cytometry.

[9] = system: U937 cells; test: DNA content (PI) cell cycle analysis; type: cell-based, human; settings: U937, 24 h
Protocol: as §5, §6

## CCCCCC(O)C#CC(F)(F)Br (stereo not shown) [XB05]
[1]
  GI50: < 500 nM
[2]
  GI50: < 500 nM
[3]
  sensitivity to XB05: moderate sensitivity
[4]
  sensitivity to XB05: low sensitivity
[5]; Homo sapiens, U-937, U937, 72 h
  GI50: < 500 nM
[5]; U937, MTT 72 h
  sensitivity to XB05: high sensitivity
[6]
  increase in γ-H2AX staining compared to vehicle-treated controls: 2.9 fold
[7]
  increase in γ-H2AX staining compared to vehicle-treated controls: 4.5 fold
[8]
  proportion of cells in G2/M phase: very modest increase in the G2/M fraction
[9]
  proportion of cells in G2/M phase: pronounced increase in the proportion of cells in G2/M phase
